Key:
CD-1 male mice [1] = experiment: Novel Object Recognition (NOR) test; type: in vivo, mouse
Protocol: This test was performed according to the method reported by Ennaceur and Delacour ([1988]) and Antunes and Biala (2012). The test was conducted in three phases: habituation, familiarization, and choice. Firstly, CD-1 mice (n = 10/group) were subjected to a 3-day habituation phase, conducted by placing each animal into the NOR chamber (a square open field 60 cm × 60 cm × 40 cm, dark PVC plastic box) located in a dimly lit (50 lx), sound-attenuated and acclimatized room. Mice were allowed to explore freely for 20 min/day. No objects were placed in the box during the habituation trial. Twenty-four hours (h) after last habituation section, the familiarization trial was conducted by placing the mouse in the field in which two identical objects (A, A) were positioned in the corners of the arena approximately 6 cm from the walls. Mice were placed at the mid-point of the wall opposite to the objects and allowed to explore them for 15 min. Fifteen minutes after the familiarization phase, mice were injected with vehicle or drug (MAM-2201 and AM-2201) and tested in two consecutive choice sections performed 2 h (short-term memory) and 24 h (long-term memory) after the drug administration. During the choice test at 2 h, one of the two familiar objects (A) was replaced with a new one (novel; B), different in shape, dimension, and color. Each mouse was then placed in the apparatus and left free to explore the objects (A and B) for 5 min. In the choice test given at 24 h, the mice explored the open field for 5 min in the presence of one familiar (A) and one novel object (C, different from B). Exploration was defined as the time (s) during which the mouse nose was in contact with the object or directed toward it at a distance ≤ 2 cm. Turning around the object was not considered as exploratory behavior.
All experiments were performed using the ANY-maze video tracking system (Ugo Basile, application version 4.99 g Beta) and subsequently analyzed by an observer blind to the mouse treatment and to which object was the novel one. Exploration time of familiar (A) and novel (B) object was detected. The novel object preference was quantified as the Recognition Index (RI) calculated as: RI=novelB-familiarA/novelB+familiarA. Using this metric, scores approaching zero reflects no preference (impairment of recognition memory), positive values reflect preference for the novel object (good recognition memory) while negative numbers reflect preference for the familiar (impairment of recognition memory). Moreover, the total exploration time (s) spent by the animal in the choice phase at 2 h (familiar A + novel B) and 24 h (familiar A + novel C) was calculated to investigate the effect of drugs on object exploration.
The objects to be discriminated by mice were 7 sets of novel and familiar objects of different material (plastic, glass, or ceramic), shape (cube, parallelepiped, and cylinder), dimension (height: 3–8 cm; width: 6–8), and color (light yellow, red and blue). The set of objects used in the familiarization phase (two identical A, A objects) was used in the subsequent vehicle/drug conditions at 2 and 24 h. The choice of object for novel or familiar was counterbalanced and the position of each object was also alternated between trials to avoid any misinterpretation of data. The object weight was such that they could not be displaced by mice. To avoid mice olfactory cues, objects and apparatus were carefully cleaned with a dilute (5%) ethanol solution and water between animal trials and also between familiarization and choice phase (executed 2 and 24 h after the familiarization phase). Animals that spent less than 10 s exploring both objects were excluded from the study and replaced by other animals.

CD-1 male mice [2] = test system: CD-1 male mice; design: method as in Bilel et al. [2020]; conditions: ref Bilel et al. [2020]; cited from earlier work
CD-1 male mice [3] = test system: CD-1 male mice; design: method as in Bilel et al. ([2020]); conditions: i.p., value ± SEM, elaborated from earlier data, ref Bilel et al. ([2020]); cited from earlier work
CD-1 male mice [4] = test system: CD-1 male mice; design: method as in Bilel et al. ([2020]); conditions: i.p., value ± SEM, elaborated from earlier data, ref Bilel et al. ([2020]); cited from earlier work; remark: listed apart in the source

Cc1ccc(C(=O)c2cn(CCCCCF)c3ccccc23)c2ccccc12 [MAM-2201, 1-[(5-fluoropentyl)-1H-indol-3-yl](4-methyl-1-naphthalenyl) methanone]
effect on Total Object Exploration (TOE) time (CD-1 male mice [1]; 0.1 mg/kg i.p.): did not alter
effect on Recognition Index (RI) (CD-1 male mice [1]; 0.1 mg/kg i.p., 2 h): significantly reduced
effect on Total Object Exploration (TOE) time (CD-1 male mice [1]; 1 mg/kg i.p., 2 and 24 h): impaired
effect on Recognition Index (RI) (CD-1 male mice [1]; 1 mg/kg i.p., 2 h): negative score
effect on Recognition Index (RI) (CD-1 male mice [1]; 0.1 and 1 mg/kg i.p., 24 h): significant decrease

O=C(c1cccc2ccccc12)c1cn(CCCCCF)c2ccccc12 [AM-2201, 1-[(5-Fluoropentyl)-1H-indol-3-yl](1-naphthylenyl) methanone]
time during which distance traveled was reduced (CD-1 male mice [2]): up to 45 min
effect on Total Object Exploration (TOE) time (CD-1 male mice [1]; 0.1 mg/kg i.p.): did not alter
effect on Recognition Index (RI) (CD-1 male mice [1]; 0.1 mg/kg i.p., 2 h): RI reduction
effect on Total Object Exploration (TOE) time (CD-1 male mice [1]; 1 mg/kg i.p., 2 and 24 h): impaired
effect on Recognition Index (RI) (CD-1 male mice [1]; 1 mg/kg i.p., 2 h): reversal
effect on Recognition Index (RI) (CD-1 male mice [1]; 0.1 and 1 mg/kg i.p., 24 h): significant reduction
ED50 (mg/kg), Visual object (CD-1 male mice [3]): 1.976 ± 0.063 mg/kg
ED50 (mg/kg), Startle reflex (CD-1 male mice [4]): 1.291 ± 0.010 mg/kg
